Results on three compounds are retold here after patent publication US10821177B2, “Induction of differential stress resistance and uses thereof” (University of Southern California, priority 2007, dated 2020).

The structures appear in SMILES notation. Like-named read-outs stand apart in the source and are kept apart here. Marks after values point to notes of the source that are not given here.

In data set [1] the test system is NXS2 neuroblastoma cells. Conditions: for No toxicity deaths: deaths / mice.
Text: The murine NX3IT28 cell line was generated by hybridization of the GD2-negative C1300 murine neuroblastoma cell line (A/J background) with murine dorsal root ganglional cells from […] mice, as previously described. The NXS2 sublime was then created by the selection of NX3IT28 cells with high GD2 expression.
Six-to-seven-week-old female NJ mice, weighing 15-18 g were purchased from Harlan Laboratories (Harlan Italy, S. Pietro al Natisone, Italy) and housed in sterile enclosures under specific virus and antigen-free conditions. All procedures involving mice and their care were reviewed and approved by licensing and ethical committee of the National Cancer Research Institute, Genoa, Italy, and by the Italian Ministry of Health.
(§1) N J mice were pretreated with 1 mg/kg/day doses of human octreotide (OCT, ProSpec-Tany TechnoGene, Rehovot, Israel) for 4 days given slowly through the tail vein in a volume of 100 pl and then injected intravenously with murine neuroblastoma NXS2 cell line (200,000/mouse), as previously described. After tumor cell inoculum, some groups of animals were starved for 48 hours and then i.v. treated with 80 mg/kg of Etoposide Teva (Teva Pharma B.V., Mijdrecht, Holland), administered as a single dose. Additional daily doses of OCT were administered for 4 days after chemotherapy. Control groups of mice without diet starvation and OCT treatment were also investigated.
(§2) To determine toxicity and efficacy, mice were monitored routinely for weight loss and general behavior. […] Survival time was used as the main criterion for determining the efficacy of each treatment.
The statistical significance of differential survival between experimental groups of animals was determined by Kaplan-Meier curves and log-rank […] test by the use of StatDirect statistical software (Camcode, Ashwell, UK).
The murine NX3IT28 cell line was generated by hybridization of the GD2-negative C1300 murine neuroblastoma cell line (A/J background) with murine dorsal root ganglional cells from C57BL/6J mice, as previously described. The NXS2 subline was then created by the selection of NX3IT28 cells with high GD2 expression.
as §1, with “Six-to-seven-week-old female A/J mice, weighing 15-18 g were purchased from Harlan Laboratories (Harlan Italy, S. Pietro al Natisone, Italy) and housed in sterile enclosures under specific virus and antigen-free conditions. All procedures involving mice and their care were reviewed and approved by licensing and ethical committee of the National cancer Research Institute, Genoa, Italy, and by the Italian Ministry of Health. A/J” for “N J”, “μl” for “pl”, “injection,” for “inoculum,”
The statistical significance of differential survival between experimental groups of animals was determined by Kaplan-Meier curves and log-rank (Peto) test by the use of StatDirect statistical software (CamCode, Ashwell, UK). In some experiments, four-week-old female CD1 mice (Harlan), weighing 18-20 g were used to evaluate stress resistance after 60-hour diet starvation. These animals, i.v. injected with 110 mg/kg etoposide, were monitored routinely for weight loss and general behavior. Survival time was used as the main criterion for determining the differential stress resistance after short-term starvation.

For data set [2], the system named is A/J mice. Kind of data set: Resistance to high-dose etoposide (80 mg/kg) in A/J mice after STS and/or octreotide. The protocol: as §1, §2
as §1, with “Six-to-seven-week-old female A/J mice, weighing 15-18 g were purchased from Harlan Laboratories (Harlan Italy, S. Pietro al Natisone, Italy) and housed in sterile enclosures under specific virus and antigen-free conditions. All procedures involving mice and their care were reviewed and approved by licensing and ethical committee of the National cancer Research Institute, Genoa, Italy, and by the Italian Ministry of Health. A/J” for “N J”, “μl” for “pl”, “injection,” for “inoculum,”

Another data set has as its system CD1 mice. Kind of data set: Resistance to high-dose etoposide (110 mg/kg) in CD1 mice after 60-hour starvation. It counts as in vivo, mouse. Conditions: 110 mg/Kg etoposide i.v., with or without 60-hour STS.
Another data set relates to athymic (Nude-nu) mice. The data set is described as follows: Resistance to high-dose etoposide (100 mg/kg) in athymic (Nude-nu) mice. The class given is in vivo, mouse. Conditions: 100 mg/kg etoposide. The protocol:
In other experiments, four-week old female athymic (Nude-nu) mice (Harlan), weighing 20-22 gr were used to evaluate stress resistance after a 48-hour starvation. These animals were i.v.-injected with 100 mg/Kg etoposide and then monitored routinely for weight loss and general behavior.

In data set [3] the test system is LID mice. The data set is described as follows: High-dose etoposide in LID mice. It counts as in vivo, mouse. Particulars: 100 mg/kg etoposide i.v.; difference in survival not significant. The protocol:
FIG. 21. Resistance to high-dose chemotherapy in LID mice. All mice received an i.v. injection of 100 mg/kg etoposide and were single caged throughout the experiment. The toxicity, evaluated by (A) percent survival and (B) daily weight measurements, are shown. p-value was calculated by log rank test (p=0.06, n=10).

The conditions of data set [4]: humans; cited from earlier work.
Data set [5] has as its system NXS2 neuroblastoma cells. The data set is described as follows: Effect of octreotide on etoposide cytotoxicity in NXS2 cells, trypan blue. Conditions: 10 or 50 micromolar octreotide, etoposide 1-3 μM, 72 hours. The class given is cell-based, mouse. The procedure:
FIG. 8. Survival of neuroblastoma (NXS2)-bearing mice. All mice were inoculated i.v. with 200,000 NXS2 cells/mouse on day 4. The different groups were treated as follows: A) Gr. 1: Control (16 mice)=i.v. inoculation with NSX2 tumor cells on day 4. Gr. 2: Oct (8 mice)=pre-treatment with 1 mg/kg/day octreotide for 4 days before and after tumor injection on day 4. Gr. 3: Oct/STS/Oct (8 mice)=pre-treatment with 1 mg/kg/day Oct before tumor cell injection on day 4+48-hour STS on days 4-6+post-treatment with 1 mg/kg/day Oct on days 8-11. Gr. […] Viability was determined by counting the cells with a contrast phase microscope. The proportion of dead (or living) cells was calculated by dividing the number of dead (or living) cells by the total number of cells per field. […]
NXS2 neuroblastoma cells treated with different concentrations of etoposide (1-3 μM) in presence or absence of octreotide (10 and 50 μM) for 72 hours were harvested by scraping, washed with complete medium, and incubated with trypan blue (0.04%; Sigma; St. Louis, Mo.) for 1 minute at 37° C. The cells were then placed in a Burker chamber (Tecnovetro, Monza Milan, Italy) and counted by viewing with a contrast phase microscope (Olympus Optical Co LTD, Tokyo, Japan). […] The proportion of dead (or living) cells was calculated by dividing the number of dead (or living) cells by the total number of cells per field.

A further data set relates to mice. The data set is described as follows: Octreotide protection of mice against paraquat. Particulars: octreotide treatment. The class given is in vivo, mouse.
Data set [6] relates to A/J mice. Kind of data set: High-dose doxorubicin toxicity in A/J mice with or without 48-hour STS. It counts as in vivo, mouse. The procedure:
FIG. 20. A/J mice, weighing 18-20 g, were starved for 48 hours (STS), and followed by a single intravenous injection of high dose doxorubicin (16 mg/kg). The toxicity, evaluated by (A) percent survival and (B) daily weight measurements, are shown.

In data set [7] the test system is LID mice. The data set is described as follows: Multiple treatments with doxorubicin in LID mice. Conditions: doxorubicin 20 mg/kg then 28 mg/kg 22 days later. It counts as in vivo, mouse. The procedure: FIG. 22. Resistance to multiple treatments with doxorubicin. Doxorubicin was intravenously administered at 20 mg/kg on Day 0 and 28 mg/kg on Day 22 (n=5). The toxicity, evaluated by (A) percent survival and (B) daily weight measurements, are shown. p-value was calculated by log rank test (p<0.05).

[8] abbreviates: Table 1, mice with metastases / mice.
[9] abbreviates: Table 1, mice with metastases / mice, 200,000 NXS2 cells i.v.
[10] abbreviates: Table 2, all mice followed until death, necropsy.
Setting [11] is: Table 2, early etoposide toxicity deaths not considered.
Where [12] appears, read: Table 2, followed until death, necropsy.

Procedure for CD1 mice: In some experiments, four-week-old female CD1 mice (Harlan), weighing 18-20 g were used to evaluate stress resistance after 60 hours of starvation. These animals, i.v. injected with 110 mg/kg etoposide, were monitored routinely for weight loss and general behavior. Survival time was used as the main criterion for determining the differential stress resistance after short-term starvation.

In the case of `COc1cc([C@@H]2c3cc4c(cc3[C@@H](O[C@@H]3O[C@@H]5CO[C@@H](C)O[C@H]5[C@H](O)[C@H]3O)[C@H]3COC(=O)[C@H]23)OCO4)cc(OC)c1O` [Eto, etoposide], in the data set on NXS2 neuroblastoma cells [1] (NXS2-injected mice without STS), the “day until which mice did not develop tumors” value stood at 80 days. Further, in the data set with NXS2 neuroblastoma cells [1] (Table 1), the “Median survival (days)” value is given as 90* days and the “Survival Range” value was 87 to 90 days. For the same compound, the Hemorrhagic ascites in the data set with NXS2 neuroblastoma cells [1] (Table 1, affected mice / mice) is 1/3*. Further, in the data set with NXS2 neuroblastoma cells [1] (setting [8]), the “Adrenal glaud (metastases)” value is 0/3*, the “Kidneys (metastases)” value is given as 1/3* and the “Ovaries (metastases)” value is given as 1/3*. Besides, the “Liver (metastases)” value with NXS2 neuroblastoma cells [1] (setting [9]) is reported as 1/3*. For the same compound, in the data set with NXS2 neuroblastoma cells [1] (Table 2), the “Survival Range” value lay within 87 to 140 days and the No toxicity deaths was 3/6. The “Liver (metastases)” value in the data set on NXS2 neuroblastoma cells [1] (setting [10]) is listed as 3/3. Also, in the data set with NXS2 neuroblastoma cells [1] (setting [11]), the “Median survival” value is recorded as 130 days. For the same compound, in the data set on NXS2 neuroblastoma cells [1] (setting [12]), the “Adrenal gland (metastases)” value is given as 0/3, the Hemorrhagic ascites is 3/3, the “Kidneys (metastases)” value was 3/3 and the “Ovaries (metastases)” value is reported as 0/3. In addition, the “mice killed by etoposide” value with A/J mice [2] (80 mg/Kg etoposide i.v., A/J mice) is reported as 43%. Besides, the “weight lost in the four days after etoposide treatment” value in the data set with A/J mice [2] (80 mg/Kg etoposide, control mice) is “approximately 20%”. Moreover, in the data set on CD1 mice, the “mice killed by etoposide” value is on record as “all”. Besides, in the data set on athymic (Nude-nu) mice (nude mice), the “mice killed by etoposide” value is 56% and the “weight change after etoposide” value is “lost weight”. The “resistance of LID mice compared to controls” value in the data set on LID mice [3] is “less resistant”. The “excreted within 48 hours” value in data set [4] is “up to 90%”.

On to `C[C@@H](O)[C@@H]1NC(=O)[C@H](CCCCN)NC(=O)[C@@H](Cc2c[nH]c3ccccc23)NC(=O)[C@H](Cc2ccccc2)NC(=O)[C@@H](NC(=O)[C@H](N)Cc2ccccc2)CSSC[C@@H](C(=O)N[C@H](CO)[C@@H](C)O)NC1=O` [OCT, octreotide], for which, in the data set on NXS2 neuroblastoma cells [1] (Table 1), the “Median survival” value was determined as 33 days and the “Survival Range” value lay in the range of 31 to 37 days. Also, in the data set with NXS2 neuroblastoma cells [1] (Table 1, affected mice / mice), the Hemorrhagic ascites is 8/8. In addition, in the data set on NXS2 neuroblastoma cells [1] (setting [8]), the “Adrenal glaud (metastases)” value is listed as 2/8, the “Kidneys (metastases)” value is 8/8 and the “Ovaries (metastases)” value is given as 8/8. In addition, the “Liver (metastases)” value in the data set with NXS2 neuroblastoma cells [1] (setting [9]) is reported as 8/8. Besides, in the data set on NXS2 neuroblastoma cells [1] (Table 2), the “Survival Range” value lay within 31 to 37 days and the No toxicity deaths was 0/8. The “Liver (metastases)” value in the data set on NXS2 neuroblastoma cells [1] (setting [10]) is on record as 8/8. The “Median survival” value in the data set on NXS2 neuroblastoma cells [1] (setting [11]) is 33 days. In the data set with NXS2 neuroblastoma cells [1] (setting [12]), the “Adrenal gland (metastases)” value is recorded as 2/8, the Hemorrhagic ascites was 8/8, the “Kidneys (metastases)” value is given as 8/8 and the “Ovaries (metastases)” value is on record as 8/8. Moreover, the “protection against NXS2-dependent death” value in the data set with NXS2 neuroblastoma cells [1] (octreotide alone, absence of short-term starvation) is on record as “did not protect”. Moreover, the “protection against etoposide toxicity” value in the data set with A/J mice [2] (octreotide alone, mice) is “not sufficient to protect”. In the data set on athymic (Nude-nu) mice (octreotide co-treatment and/or 48-hour starvation), the mice that died result was “all”. Moreover, the “sensitization of NXS2 cells to etoposide treatment” value with NXS2 neuroblastoma cells [5] is “did not sensitize”. Besides, the “protection of mice against the superoxide generator paraquat” value in the data set with mice was “sufficient to protect”.

As for `COc1cccc2c1C(=O)c1c(O)c3c(c(O)c1C2=O)C[C@@](O)(C(=O)CO)C[C@@H]3O[C@H]1C[C@H](N)[C@H](O)[C@H](C)O1` [doxorubicin], the survival entry in the data set on A/J mice [6] (16 mg/Kg doxorubicin i.v. after 48-hour STS (n=5)) is recorded as “protected all mice”; in the data set on LID mice [7] (LID mice), “All LID mice survived”. In addition, in the data set with A/J mice [6] (16 mg/Kg doxorubicin i.v., mice not pre-starved), the lethality result is recorded as “killed all the mice”. This compound also displayed a mice that died in the data set on LID mice [7] (control mice) of 75%.
